According to patent US6335008B1, “Hybrid genes incorporating a DNA fragment containing at least one gene encoding an insecticidal protein and a gene encoding a glutamine synthase inhibitor, plasmids, transformed cyanobacteria expressing such proteins and method for use as biocontrol agent” (priority 1987, dated 2002):

Key:
[1] = tested on: Synechocystis 6803 transformed with pKW 1188; assay: Growth on BG-11 agar plate containing PPT or Bialaphos, vector transformant; type: cell-based; details: Bialaphos at 5 micrograms/ml
Description: (§1) Dilution of transformed Synechocystis 6803 was plated on BG-11 agar plate containing PPT (Table 4).

[2] = tested on: Synechocystis 6803 transformed with pWP3210; assay: Growth on BG-11 agar plate containing PPT or Bialaphos, bar gene transformant; type: cell-based; details: Bialaphos at 5 micrograms/ml
Description: as §1

C[C@H](NC(=O)[C@H](C)NC(=O)[C@@H](N)CCP(C)(=O)O)C(=O)O [Bialaphos]
growth on Bialaphos [1]: neither of these two transformants grow | growth on Bialaphos [2]: neither of these two transformants grow
